Our source for the DC50 and Dmax values is patent US20240279202A1 (NURIX THERAPEUTICS, INC., priority 2021, published 2024).

The experiment has as its target T1, ITK (Homo sapiens, UniProt Q08881).
T1 sequence (Q08881 1-620): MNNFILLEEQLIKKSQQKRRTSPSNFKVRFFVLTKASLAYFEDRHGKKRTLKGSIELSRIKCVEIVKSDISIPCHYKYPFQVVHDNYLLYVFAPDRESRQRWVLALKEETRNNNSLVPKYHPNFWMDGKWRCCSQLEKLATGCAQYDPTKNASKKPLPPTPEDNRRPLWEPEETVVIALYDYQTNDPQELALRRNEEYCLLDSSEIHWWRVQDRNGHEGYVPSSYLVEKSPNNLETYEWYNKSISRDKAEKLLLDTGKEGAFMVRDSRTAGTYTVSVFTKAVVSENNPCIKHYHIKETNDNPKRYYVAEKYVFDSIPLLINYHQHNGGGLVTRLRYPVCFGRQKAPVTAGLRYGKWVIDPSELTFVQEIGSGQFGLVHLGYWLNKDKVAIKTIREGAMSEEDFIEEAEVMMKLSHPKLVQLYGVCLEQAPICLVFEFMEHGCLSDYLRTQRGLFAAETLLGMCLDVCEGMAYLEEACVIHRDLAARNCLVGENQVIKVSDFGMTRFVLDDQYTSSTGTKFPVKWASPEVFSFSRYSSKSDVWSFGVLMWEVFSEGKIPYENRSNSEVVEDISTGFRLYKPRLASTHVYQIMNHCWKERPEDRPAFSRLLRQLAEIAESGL
The experiment in a line: ITK degradation HiBiT assay. It counts as cell-based. Also on record: expressed in transfected cells; host or cells: Molt4 (ATCC CRL-1552), monoclonal clone 1C10, engineered to carry the HiBiT tag. To be noted: 4 hrs; for DC50: C-terminal HiBiT-tagged Molt4 cells; for Dmax: MOLT-4, C-terminal HiBiT-tagged Molt4 cells. The gist of the method:
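C-terminal HiBiT-tagged Molt4 cells (clone 1C10) treated 4 h at 32° C with an 11-point, 5-fold compound dilution series (0.5% DMSO). HiBiT lytic detection with LgBiT then luminescence read; % ITK remaining versus concentration fit by four-parameter variable-slope model to give DC50 and Dmax.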
(The HiBiT peptide binds its large partner to form an active luciferase.)

Usually DC50 stands for the midpoint of the concentration-degradation curve. A high value points to degradation only at high concentration. Broadly, the Dmax is the largest share of the target that was removed. Higher therefore signals a fuller loss of target. The compound `C[C@@H]1CN(C(=O)c2ccc3cc(-c4n[nH]c5c4CCC(C)(C)C5)[nH]c3c2)CCN1CC1CCN(c2ccc(C3CCC(=O)NC3=O)cn2)CC1` (stereo partly drawn) [Compound 129, 3-(6-(4-(((R)-4-(2-(6,6-dimethyl-4,5,6,7-tetrahydro-1H-indazol-3-yl)-1H-indole-6-carbonyl)-2-methylpiperazin-1-yl)methyl)piperidin-1-yl)pyridin-3-yl)piperidine-2,6-dione] showed a DC50 of 4.9 nM and a Dmax of 81%.
The matching figures for `C[C@H]1CN(CC2CCN(c3ccc(C4CCC(=O)NC4=O)cn3)CC2)CCN1C(=O)c1ccc2cc(-c3n[nH]c4c3CCC(C)(C)C4)[nH]c2c1` (stereo partly drawn) [Compound 130, 3-(6-(4-(((S)-4-(2-(6,6-dimethyl-4,5,6,7-tetrahydro-1H-indazol-3-yl)-1H-indole-6-carbonyl)-3-methylpiperazin-1-yl)methyl)piperidin-1-yl)pyridin-3-yl)piperidine-2,6-dione]: 5.5 nM and 85%.
Taken in the same sequence, the figures for `C[C@H]1CN(C(=O)c2ccc3cc(-c4n[nH]c5c4CCC(C)(C)C5)[nH]c3c2)CCN1CC1CCN(c2ccc(C3CCC(=O)NC3=O)cn2)CC1` (stereo partly drawn) [Compound 131, 3-(6-(4-(((S)-4-(2-(6,6-dimethyl-4,5,6,7-tetrahydro-1H-indazol-3-yl)-1H-indole-6-carbonyl)-2-methylpiperazin-1-yl)methyl)piperidin-1-yl)pyridin-3-yl)piperidine-2,6-dione] were 0.5 nM and 84%.
Taken in the same sequence, the figures for `C[C@@H]1CN(CC2CCN(c3ccc(C4CCC(=O)NC4=O)cn3)CC2)CCN1C(=O)c1ccc2cc(-c3n[nH]c4c3CCC(C)(C)C4)[nH]c2c1` (stereo partly drawn) [Compound 132, 3-(6-(4-(((R)-4-(2-(6,6-dimethyl-4,5,6,7-tetrahydro-1H-indazol-3-yl)-1H-indole-6-carbonyl)-3-methylpiperazin-1-yl)methyl)piperidin-1-yl)pyridin-3-yl)piperidine-2,6-dione] were 7 nM and 82%.
Consider `CC1(C)CCc2c(-c3cc4ccc(C(=O)N5CCN(CC6CCN(c7ccc(C8CCC(=O)NC8=O)cn7)CC6)C(C)(C)C5)cc4[nH]3)n[nH]c2C1` (stereo not shown) [Compound 133, 3-(6-(4-((4-(2-(6,6-dimethyl-4,5,6,7-tetrahydro-1H-indazol-3-yl)-1H-indole-6-carbonyl)-2,2-dimethylpiperazin-1-yl)methyl)piperidin-1-yl)pyridin-3-yl)piperidine-2,6-dione], for which it took 1.6 nM to reach half-maximal degradation (DC50) and the Dmax came out at 86%.
Taken in the same sequence, the figures for `C[C@@]12Cc3[nH]nc(-c4cc5ccc(C(=O)N6CCN(CC7CCN(c8ccc(C9CCC(=O)NC9=O)cc8)CC7)CC6)cc5[nH]4)c3C[C@@H]1C2(F)F` (stereo partly drawn) [Compound 135, 3-(4-(4-((4-(2-((4aS,5aR)-5,5-difluoro-5a-methyl-1,4,4a,5,5a,6-hexahydrocyclopropa[f]indazol-3-yl)-1H-indole-6-carbonyl)piperazin-1-yl)methyl)piperidin-1-yl)phenyl)piperidine-2,6-dione] were less than 0.01 nM and 85%.
The matching figures for `CC1(C)CCc2c(-c3cc4cc(F)c(C(=O)N5CCN(CC6CCN(c7ccc(C8CCC(=O)NC8=O)cn7)CC6)CC5)cc4[nH]3)n[nH]c2C1` (stereo not shown) [Compound 136, 3-(6-(4-((4-(2-(6,6-dimethyl-4,5,6,7-tetrahydro-1H-indazol-3-yl)-5-fluoro-1H-indole-6-carbonyl)piperazin-1-yl)methyl)piperidin-1-yl)pyridin-3-yl)piperidine-2,6-dione]: 0.45 nM and 80%.
The matching figures for `CC1(C)CCc2c(-c3cc4cc(F)c(C(=O)N5CCN(CC6CCN(c7ccc(C8CCC(=O)NC8=O)cc7)CC6)CC5)cc4[nH]3)n[nH]c2C1` (stereo not shown) [Compound 137, 3-(4-(4-((4-(2-(6,6-dimethyl-4,5,6,7-tetrahydro-1H-indazol-3-yl)-5-fluoro-1H-indole-6-carbonyl)piperazin-1-yl)methyl)piperidin-1-yl)phenyl)piperidine-2,6-dione]: 4.4 nM and 81%.
